The structures appear in SMILES notation.

For the first experiment, the system named is Dog Coronary Artery. Kind of experiment: Dog coronary artery test: relaxation of KCl-contracted coronary artery rings. Type of experiment: cell-based. The following applies: Canis lupus familiaris, coronary artery rings contracted with 50 mM KCl, 37° C.; IC50 = 50% relaxation; mean values, probit analysis. The protocol: Mongrel dogs of either sex and weighing 15 to 30 kg were anesthetized with pentobarbital (35 mg/kg). Each heart was quickly removed through a right thoracotomy and placed in Kreb's bicarbonate solution of the following composition (mM/L): NaCl, 118.2; KCl, 4.6; CaCl2.2H2 O, 1.6; KH2 PO4, 1.2; MgSO4.7H2 O, 1.2; NaHCO3, 24.8; and dextrose, 10.0. The medium was kept at room temperature and saturated with 95% O2 /5% CO2. The left anterior descending and circumflex coronary arteries were isolated and used either immediately or stored overnight at 5° C. Arteries were cut into rings approximately 2 to 3 mm wide, placed on 2 L-shaped hooks and mounted in a 10 ml organ bath by attaching one hook to a stationary glass rod and the other hook to a force-displacement transducer. Tissue medium consisted of Kreb's bicarbonate solution maintained at 37° C. and bubbled with 95 % O2 /5% CO2. Artery rings were equilibrated for 1-2 hours under a resting tension of 3 g. Tissue medium was then changed to one containing 50 mM KCl and 72.8 mM NaCl but otherwise identical to Kreb's bicarbonate solution. After tissues achieved a steady state contractile tension (1-2 hours) a given test agent was added to each bath and concentration-response curves determined. […] At the end of the concentration-response curve, tissue medium was changed to one identical to the 50 mM KCl buffer but containing 2.5 mM EGTA and no CaCl2.2H2 O to obtain complete relaxation of the tissue. Percent relaxation was then determined for each concentration and values producing 50% relaxation (IC50) were estimated using a probit analysis.
One may read the IC50 as the point on the concentration scale where inhibition reaches its midpoint. Read a high IC50 as lower potency. Turning to `CC[C@H](C)OC(=O)C1=C(C)NC(C)=C(C(=O)OC)C1c1csc2ccncc12` (stereo partly drawn) [Example 40, 1,4-Dihydro-2,6-dimethyl-4-thieno[3,2-c]pyridin-3-yl-3,5-pyridinedicarboxylic acid, methyl(S)-1-methylpropyl ester], the 50% inhibitory concentration (IC50) is 33.1 nM.

For `COC(=O)C1=C(C)NC(C)=C(C(=O)OC(C)C)C1c1csc2ccncc12` (stereo not shown) [Example 20, 1,4-Dihydro-2,6-dimethyl-4-thieno[3,2-c]pyridin-3-yl-3,5-pyridinedicarboxylic acid, 3-methyl 5-isopropyl ester], the midpoint of inhibition, the IC50, lay at 15.8 nM. Against the preceding molecule, the IC50 is about 2.1-fold lower.

Regarding `COCCOC(=O)C1=C(C)NC(C)=C(C(=O)OC(C)C)C1c1csc2ccccc12` (stereo not shown) [Example 39, 4-Benzo[b]thien-3-yl-1,4-dihydro-2,6-dimethyl-3,5-pyridinedicarboxylic acid, 2-methoxyethyl 1-methylethyl ester], the IC50 is 891 nM.

Turning to `CCOC(=O)C1=C(C)NC(C)=C(C(=O)OCC)C1c1csc2cnccc12` [Example 12, 1,4-Dihydro-2,6-dimethyl-4-thieno[2,3-c]pyridin-3-yl-3,5-pyridinedicarboxylic acid, diethyl ester], the 50% inhibitory concentration (IC50) was 40.7 nM.

As to `CCOC(=O)C1=C(C)NC(C)=C(C(=O)OCC)C1c1c(C)sc2ccncc12` [Example 6, 1,4-Dihydro-2,6-dimethyl-4-(2-methylthieno[3,2-c]pyridin-3-yl)-3,5-pyridinedicarboxylic acid, diethyl ester], the IC50 was 398 nM.

With `C=CCOC(=O)C1=C(C)NC(C)=C(C(=O)OC)C1c1csc2ccncc12` (stereo not shown) [Example 50, 1,4-Dihydro-2,6-dimethyl-4-thieno[3,2-c]pyridin-3-yl-3,5-pyridinecarboxylic acid, methyl 2-propenyl ester], the IC50 is 40.7 nM.

For the molecule `CCOC(=O)C1=C(C)NC(C)=C(C(=O)OCC)C1c1cc2ccccc2s1` [Example 1, 4-Benzo[b]thien-2-yl-1,4-dihydro-2,6-dimethyl-3,5-pyridinedicarboxylic acid, diethyl ester], the IC50 is 110000 nM. Against the preceding molecule, the IC50 is about 2700-fold higher.

On to `CC1=C(C(=O)OCCN(C)Cc2ccccc2)C(c2csc3ccccc23)C(C(=O)OCCN(C)Cc2ccccc2)=C(C)N1` [Example 32], for which the half-maximal inhibitory concentration (IC50) is 21400 nM.

In turn, `COC(=O)C1=C(C)NC(C)=C(C(=O)OC(C)c2ccccc2)[C@@H]1c1csc2ccncc12` (stereo partly drawn) [Example 47, (R)-1,4-Dihydro-2,6-dimethyl-4-thieno[3,2-c]pyridin-3-yl-3,5-pyridinedicarboxylic acid, methyl 1-phenylethyl ester] showed an IC50 of 49 nM.

`CCOC(=O)C1=C(C)NC(C)=C(C(=O)OCC)C1c1csc2ccc([N+](=O)[O-])cc12` [Example 26, 1,4-Dihydro-2,6-dimethyl-4-(5-nitrobenzo[b]thien-3-yl)-3,5-pyridinedicarboxylic acid, diethyl ester] gave an IC50 of 229 nM.

`COCCOC(=O)C1=C(C)NC(C)=C(C(=O)OC(C)C)C1c1csc2ccncc12` (stereo not shown) [Example 37, 1,4-Dihydro-2,6-dimethyl-4-thieno[3,2-c]pyridin-3-yl-3,5-pyridinedicarboxylic acid, 2-methoxyethyl 1-methylethyl ester] showed a half-maximal inhibitory concentration (IC50) of 166 nM. This IC50 and that of the molecule before are within 1.5-fold of each other.

Regarding `CCOC(=O)C1=C(C)NC(C)=C(C(=O)OCC)C1c1cccc2sccc12` [Example 55, 4-(Benzo[b]thien-4-yl)-1,4-dihydro-2,6-dimethyl-3,5-pyridinedicarboxylic a cid, diethyl ester], the IC50 is 151 nM.

The molecule `CCOC(=O)C1=C(C)NC(C)=C(C(=O)OCC)C1c1csc2cc([N+](=O)[O-])ccc12` [Example 27, 1,4-Dihydro-2,6-dimethyl-4-(6-nitrobenzo[b]thien-3-yl)-3,5-pyridinedicarboxylic acid, diethyl ester] showed an IC50 of 204 nM.

Take `CCOC(=O)C1=C(C)NC(C)=C(C(=O)OCC)C1c1csc2c(C)nccc12` [Example 14, 1,4-Dihydro-2,6-dimethyl-4-(7-methylthieno[2,3-c]pyridin-3-yl)-3,5-pyridinedicarboxylic acid, diethyl ester]: the IC50 was 3160 nM. This IC50 lies about 15-fold higher than the previous one.

The molecule `CC1=C(C(=O)OC(C)C)C(c2csc3ccncc23)C(C(=O)OC(C)C)=C(C)N1` [Example 7, 1,4-Dihydro-2,6-dimethyl-4-thieno[3,2-c]pyridin-3-yl-3,5-pyridinedicarboxylic acid, diisopropyl ester] had an IC50 of 398 nM.

Regarding `CCOC(=O)C1=C(C)NC(C)=C(C(=O)OCCN(C)Cc2ccccc2)C1c1csc2ccccc12` (stereo not shown) [Example 18, 4-Benzo[b]thien-3-yl-1,4-dihydro-2,6-dimethyl-3,5-pyridinedicarboxylic acid, 3-ethyl 5-(2-[methyl(phenylmethyl)amino]ethyl)ester], it took 3470 nM to reach half-maximal inhibition (IC50).

For the molecule `COC(=O)C1=C(C)NC(C)=C(C(=O)OCC2CC2)C1c1csc2ccncc12` (stereo not shown) [Example 51, 1,4-Dihydro-2,6-dimethyl-4-thieno[3,2-c]pyridin-3-yl-3,5-pyridinedicarboxylic acid, cyclopropylmethyl methyl ester], the IC50 was 7.59 nM.

For the molecule `CCCOC(=O)C1=C(C)NC(C)=C(C(=O)OCCC)C1c1csc2ccncc12` [Example 10, 1,4-Dihydro-2,6-dimethyl-4-thieno[3,2-c]pyridin-3-yl-3,5-pyridinedicarboxylic acid, dipropyl ester], the IC50 was 251 nM. Against the preceding molecule, the IC50 is about 33-fold higher.

For `COC(=O)C1=C(C)NC(C)=C(C(=O)OCC(C)C)C1c1csc2ccncc12` (stereo not shown) [Example 43, 1,4-Dihydro-2,6-dimethyl-4-thieno[3,2-c]pyridin-3-yl-3,5-pyridinedicarboxylic acid, methyl 2-methylpropyl ester], the IC50 is 100 nM. Against the preceding molecule, the IC50 is about 2.5-fold lower.

As for `CCOC(=O)C1=C(C)NC(C)=C(C(=O)OCC)C1c1csc2ccc(Br)cc12` [Example 22, 4-(5-Bromobenzo[b]thien-3-yl)-1,4-dihydro-2,6-dimethyl-3,5-pyridinedicarboxlic acid, diethyl ester], the IC50 is 39800 nM.

Consider `COC(=O)C1=C(C)NC(C)=C(C(=O)OC(C)(C)C)C1c1csc2ccncc12` (stereo not shown) [Example 45, 1,4-Dihydro-2,6-dimethyl-4-thieno[3,2-c]pyridin-3-yl-3,5-pyridinedicarboxylic acid, methyl 1,1-dimethylethyl ester], for which the midpoint of inhibition, the IC50, lay at 646 nM. Against the preceding molecule, the IC50 is about 62-fold lower.

Regarding `CCOC(=O)C1=C(C)NC(C)=C(C(=O)OCC)C1c1c(C)sc2ccccc12` [Example 16, 1,4-Dihydro-2,6-dimethyl-4-(2-methylbenzo[b]thien-3-yl)-3,5-pyridinedicarboxylic acid, diethyl ester], the IC50 is 407 nM.

The same experiment, now with this note: coronary artery rings contracted with 50 mM KCl, 37° C.; IC50 = 50% relaxation; mean values, probit analysis.
For the molecule `CCOC(=O)C1=C(C)NC(C)=C(C(=O)OCCOC)C1c1csc2cccnc12` (stereo not shown) [Example 19, 1,4-Dihydro-2,6-dimethyl-4-thieno[3,2-]pyridin-3-yl-3,5-pyridinedicarboxylic acid, 3-ethyl 5-(2-methoxyethyl)ester], the “-log IC50” value is given as 7.0.

Consider `CCOC(=O)C1=C(C)NC(C)=C(C(=O)OCC)C1c1csc2ccncc12` [Example 52, 1,4-Dihydro-2,6-dimethyl-4-thieno[3,2-c]pyridin-3-yl-3,5-pyridinedicarboxylic acid, diethyl ester], for which the “-log IC50” value was found to be 6.94.

For the molecule `CCOC(=O)C1=C(C)NC(C)=C(C(=O)OCC)C1c1csc2ccncc12` [Example 5, 1,4-Dihydro-2,6-dimethyl-4-thieno[3,2-c]pyridin-3-yl-3,5-pyridinedicarboxylic acid, diethyl ester], the “-log IC50” value is on record as 7.55.

Source of the values: patent US4659717A, “Dihydropyridines useful in the treatment of angina and stroke” (Eli Lilly and Company, priority 1985, dated 1987).
